Measurements taken from US20090130223A1, “COSMETIC PREPARATION WITH AQUAPORIN STIMULATORS AND THE USE THEREOF” (priority 2006, published 2009).

Tested on: aquaporin-3 mRNA in human keratinocytes
Assay: AQP-3 mRNA expression in human keratinocytes by quantitative RT-PCR
Format: cell-based
Conditions: 24 h, 3% w/v glycerol glucoside in culture medium (450 mOsm), compared with 1% w/v glycerin, 2.25% w/v glucose, and 1.5% w/v glycerol glucoside + 0.5% w/v glycerin
Experimental: To this end, human keratinocytes were treated in triplicate in cell culture (37° C., Medium Cambrex No. CC-3158 incl. Supplement kit No. CC-4152; +0.1 mM CaCl2) for 24 h as follows: • Untreated control (corresponds to 330 mOsm, isomolar culture medium) • Addition of 1% w/v glycerin to the culture medium (corresponds to 450 mOsm, osmotic stress) • Addition of 1.5% w/v glycerol glucoside and 0.5% w/v glycerin to the culture medium (corresponds to 450 mOsm osmotic stress, mixture ratio regarding number of particles 1:1) • Addition of 3% w/v glycerol glucoside to the culture medium (corresponds to 450 mOsm, osmotic stress) • Addition of 2.25% w/v glucose to the culture medium (corresponds to 450 mOsm, osmotic stress)
The different amounts used are due to the different molecular weights of the substances. The contribution to the increase in osmolarity in the culture medium depends solely on the added particle number, and this is the same in all of the tests.
After harvest and lysis the entire RNA was isolated from the cells and the aquaporin-3 mRNA relatively contained was determined by means of quantitative RT-PCR.
The concentration indication w/v means mass per volume, wherein 1.0% w/v corresponds to one gram substance in 100 ml solution.

With Glyceryl glucoside the “expression level of the aquaporin-3 mRNA relativized on 18S rRNA (stimulating effect)” value was “better stimulating effect than classic glycerin or glucose alone or a 1:1 mixture of glycerin and glyceryl glucoside”.
